Measured values from ChEMBL document CHEMBL1150788, “In vitro susceptibility of Sporothrix schenckii to six antifungal agents determined using three different methods” (2007).

How the values were obtained:
Type in all cases: functional
[1] = tested on: Sporothrix schenckii; assay: Antifungal activity against Sporothrix schenckii MRSS4 isolate from cutaneous-lymphatic sporotrichosis patient after 72 hrs by Sensititre YeastOne method
[2] = tested on: Sporothrix schenckii; assay: Antifungal activity against Sporothrix schenckii P30915 isolate from cutaneous-lymphatic sporotrichosis patient after 72 hrs by Sensititre YeastOne method
[3] = tested on: Sporothrix schenckii; assay: Antifungal activity against Sporothrix schenckii P25013 isolate from cutaneous-lymphatic sporotrichosis patient after 72 hrs by Sensititre YeastOne method
[4] = tested on: Sporothrix schenckii; assay: Antifungal activity against Sporothrix schenckii P24255 isolate from cutaneous-lymphatic sporotrichosis patient after 72 hrs by Sensititre YeastOne method
[5] = tested on: Sporothrix schenckii; assay: Antifungal activity against Sporothrix schenckii P14954 isolate from cutaneous-lymphatic sporotrichosis patient after 72 hrs by ATB Fungus 2 method
[6] = tested on: Sporothrix schenckii; assay: Antifungal activity against Sporothrix schenckii P25013 isolate from cutaneous-lymphatic sporotrichosis patient after 72 hrs by ATB Fungus 2 method
[7] = tested on: Sporothrix schenckii; assay: Antifungal activity against Sporothrix schenckii P0019 isolate from cutaneous-lymphatic sporotrichosis patient after 72 hrs by ATB Fungus 2 method
[8] = tested on: Sporothrix schenckii; assay: Antifungal activity against Sporothrix schenckii isolate from cutaneous-lymphatic sporotrichosis patient after 72 hrs by Sensititre YeastOne method
[9] = tested on: Sporothrix schenckii; assay: Antifungal activity against Sporothrix schenckii P26187 isolate from cutaneous-lymphatic sporotrichosis patient after 72 hrs by ATB Fungus 2 method
[10] = tested on: Sporothrix schenckii; assay: Antifungal activity against Sporothrix schenckii PGAC0016 isolate from cutaneous-lymphatic sporotrichosis patient after 72 hrs by ATB Fungus 2 method
[11] = tested on: Sporothrix schenckii; assay: Antifungal activity against Sporothrix schenckii P30019 isolate from cutaneous-lymphatic sporotrichosis patient after 72 hrs by Sensititre YeastOne method
[12] = tested on: Candida parapsilosis; assay: Antifungal activity against Candida parapsilosis ATCC 22019 […] after 72 hrs by Sensititre YeastOne method; conditions: Lodderomyces parapsilosis, ATCC 22019, 72 h
[13] = tested on: Sporothrix schenckii; assay: Antifungal activity against Sporothrix schenckii P10012 isolate from cutaneous-lymphatic sporotrichosis patient after 72 hrs by Sensititre YeastOne method
[14] = tested on: Sporothrix schenckii; assay: Antifungal activity against Sporothrix schenckii P30915 isolate from cutaneous-lymphatic sporotrichosis patient after 72 hrs by ATB Fungus 2 method
[15] = tested on: Sporothrix schenckii; assay: Antifungal activity against Sporothrix schenckii P3287 isolate from cutaneous-lymphatic sporotrichosis patient after 72 hrs by Sensititre YeastOne method
[16] = tested on: Sporothrix schenckii; assay: Antifungal activity against Sporothrix schenckii PSCC1 isolate from cutaneous-lymphatic sporotrichosis patient after 72 hrs by Sensititre YeastOne method
[17] = tested on: Sporothrix schenckii; assay: Antifungal activity against Sporothrix schenckii P1621 isolate from cutaneous-lymphatic sporotrichosis patient after 72 hrs by Sensititre YeastOne method
[18] = tested on: Sporothrix schenckii; assay: Antifungal activity against Sporothrix schenckii P14954 isolate from cutaneous-lymphatic sporotrichosis patient after 72 hrs by Sensititre YeastOne method
[19] = tested on: Sporothrix schenckii; assay: Antifungal activity against Sporothrix schenckii PGAC0016 isolate from cutaneous-lymphatic sporotrichosis patient after 72 hrs by Sensititre YeastOne method
[20] = tested on: Sporothrix schenckii; assay: Antifungal activity against Sporothrix schenckii MRSS4 isolate from cutaneous-lymphatic sporotrichosis patient after 72 hrs by ATB Fungus 2 method
[21] = tested on: Sporothrix schenckii; assay: Antifungal activity against Sporothrix schenckii P10012 isolate from cutaneous-lymphatic sporotrichosis patient after 72 hrs by ATB Fungus 2 method
[22] = tested on: Sporothrix schenckii; assay: Antifungal activity against Sporothrix schenckii P26187 isolate from cutaneous-lymphatic sporotrichosis patient after 72 hrs by Sensititre YeastOne method
[23] = tested on: Sporothrix schenckii; assay: Antifungal activity against Sporothrix schenckii isolate from cutaneous-lymphatic sporotrichosis patient after 72 hrs by ATB Fungus 2 method
[24] = tested on: Sporothrix schenckii; assay: Antifungal activity against Sporothrix schenckii P3287 isolate from cutaneous-lymphatic sporotrichosis patient after 72 hrs by ATB Fungus 2 method
[25] = tested on: Sporothrix schenckii; assay: Antifungal activity against Sporothrix schenckii PJRC002 isolate from cutaneous-lymphatic sporotrichosis patient after 72 hrs by Sensititre YeastOne method
[26] = tested on: Sporothrix schenckii; assay: Antifungal activity against Sporothrix schenckii P24223 isolate from cutaneous-lymphatic sporotrichosis patient after 72 hrs by ATB Fungus 2 method
[27] = tested on: Sporothrix schenckii; assay: Antifungal activity against Sporothrix schenckii P30019 isolate from cutaneous-lymphatic sporotrichosis patient after 72 hrs by modified NCCLS M38-A method
[28] = tested on: Sporothrix schenckii; assay: Antifungal activity against Sporothrix schenckii SSA29 isolate from cutaneous-lymphatic sporotrichosis patient after 72 hrs by ATB Fungus 2 method
[29] = tested on: Sporothrix schenckii; assay: Antifungal activity against Sporothrix schenckii P24255 isolate from cutaneous-lymphatic sporotrichosis patient after 72 hrs by ATB Fungus 2 method
[30] = tested on: Pichia kudriavzevii; assay: Antifungal activity against Candida krusei ATCC 6258 […] after 72 hrs by ATB Fungus 2 method; conditions: ATCC 6258, 72 h
[31] = tested on: Sporothrix schenckii; assay: Antifungal activity against Sporothrix schenckii P14036 isolate from cutaneous-lymphatic sporotrichosis patient after 72 hrs by ATB Fungus 2 method
[32] = tested on: Sporothrix schenckii; assay: Antifungal activity against Sporothrix schenckii isolate from cutaneous-lymphatic sporotrichosis patient after 72 hrs by modified NCCLS M38-A method
[33] = tested on: Sporothrix schenckii; assay: Antifungal activity against Sporothrix schenckii P20825 isolate from cutaneous-lymphatic sporotrichosis patient after 72 hrs by ATB Fungus 2 method
[34] = tested on: Sporothrix schenckii; assay: Antifungal activity against Sporothrix schenckii PJRC002 isolate from cutaneous-lymphatic sporotrichosis patient after 72 hrs by ATB Fungus 2 method
[35] = tested on: Sporothrix schenckii; assay: Antifungal activity against Sporothrix schenckii PSSA81 isolate from cutaneous-lymphatic sporotrichosis patient after 72 hrs by Sensititre YeastOne method
[36] = tested on: Pichia kudriavzevii; assay: Antifungal activity against Candida krusei ATCC 6258 […] after 72 hrs by Sensititre YeastOne method; conditions: ATCC 6258, 72 h
[37] = tested on: Sporothrix schenckii; assay: Antifungal activity against Sporothrix schenckii P30019 isolate from cutaneous-lymphatic sporotrichosis patient after 72 hrs by ATB Fungus 2 method
[38] = tested on: Candida parapsilosis; assay: Antifungal activity against Candida parapsilosis ATCC 22019 […] after 72 hrs by ATB Fungus 2 method; conditions: Lodderomyces parapsilosis, ATCC 22019, 72 h
[39] = tested on: Sporothrix schenckii; assay: Antifungal activity against Sporothrix schenckii P0019 isolate from cutaneous-lymphatic sporotrichosis patient after 72 hrs by Sensititre YeastOne method
[40] = tested on: Sporothrix schenckii; assay: Antifungal activity against Sporothrix schenckii P20825 isolate from cutaneous-lymphatic sporotrichosis patient after 72 hrs by Sensititre YeastOne method
[41] = tested on: Pichia kudriavzevii; assay: Antifungal activity against Candida krusei ATCC 6258 […] after 72 hrs by modified NCCLS M38-A method; conditions: ATCC 6258, 72 h
[42] = tested on: Sporothrix schenckii; assay: Antifungal activity against Sporothrix schenckii P1621 isolate from cutaneous-lymphatic sporotrichosis patient after 72 hrs by ATB Fungus 2 method
[43] = tested on: Sporothrix schenckii; assay: Antifungal activity against Sporothrix schenckii P14036 isolate from cutaneous-lymphatic sporotrichosis patient after 72 hrs by Sensititre YeastOne method
[44] = tested on: Sporothrix schenckii; assay: Antifungal activity against Sporothrix schenckii P24223 isolate from cutaneous-lymphatic sporotrichosis patient after 72 hrs by Sensititre YeastOne method
[45] = tested on: Candida parapsilosis; assay: Antifungal activity against Candida parapsilosis ATCC 22019 […] after 72 hrs by modified NCCLS M38-A method; conditions: Lodderomyces parapsilosis, ATCC 22019, 72 h
[46] = tested on: Sporothrix schenckii; assay: Antifungal activity against Sporothrix schenckii PSCC1 isolate from cutaneous-lymphatic sporotrichosis patient after 72 hrs by ATB Fungus 2 method
[47] = tested on: Sporothrix schenckii; assay: Antifungal activity against Sporothrix schenckii SSA29 isolate from cutaneous-lymphatic sporotrichosis patient after 72 hrs by Sensititre YeastOne method

Nc1nc(=O)[nH]cc1F [FLUCYTOSINE]
32 µg/mL: MIC [3] | MIC90 [8] | MIC [18] | MIC [28] | MIC [30] | MIC [33] | MIC [36] | MIC [43]
8 µg/mL: MIC [13] | MIC [17] | MIC [22] | MIC [25] | MIC [40] | MIC [42]
16 µg/mL: MIC [1] | MIC [2] | MIC [4] | MIC50 [8] | MIC [15] | MIC [19] | MIC [39] | MIC [41] | MIC [44] | MIC [47]
4 µg/mL: MIC [27]
64 µg/mL: MIC [6] | MIC [9] | MIC [21] | MIC50 [23] | MIC [29] | MIC [31] | MIC [34] | MIC [37]
> 64 µg/mL: MIC [5] | MIC [7] | MIC [10] | MIC [14] | MIC [16] | MIC [20] | MIC90 [23] | MIC [24] | MIC [26] | MIC50 [32] | MIC [46]
0.5 µg/mL: MIC [45]
1 µg/mL: MIC [11] | MIC [12] | MIC [35] | MIC [38]
